Test results as given in patent US12209180B2, “Bis-octahydrophenanthrene carboxamide derivatives and protein conjugates thereof for use as LXR agonists” (REGENERON PHARMACEUTICALS, INC., priority 2018, dated 2025).
Where two headings read alike, the source gives them in different places.

B1: H1H21234N-N297Q-LP1 (conjugate)
VH: QVQLQESGPGLVKPSETLSLTCTVTGGSISRNYWSWIRQPPGKGLEWIGYIYYSGSIDYNPSLKSRVTISVDTSKNQFSLKLSSMTAADTAVYYCARDRWNWKYGMDVWGQGTTVIVSS
VL: EIVLTQSPGTLSLSPGERATLSCRASQTVRNNYLAWYHQKPGQAPRLLIYGASSRATGIPDRFSGSGSGTDFTLTISRLEPEDFTVYYCHQYGNSPWTFGQGTKMEIKR

Columns and labels:
[1] = Solubility in water; assay type: physicochemical
[2] = test system: T1, LXR; test: Cell-based LXR luciferase reporter assay, LXR agonists (Example 16a); design: species or system human; settings: Table 5a; for EC50: differentiated THP-1/LXR-Luc cells, 48 h; for S/N: highest RLU on dose response curve / RLU in untreated wells
T1 construct: EC50 (M); S/N; other: differentiate
Experimental: LXR agonists described herein were evaluated in a cell-based LXR responsive luciferase reporter assay. To generate the assay cell line, an LXR regulated luciferase reporter gene [Cignal Lenti LXR Reporter (luc) kit (Qiagen, Cat #CLS-001L)] was transduced into THP1 cells and the cells were selected for two weeks in puromycin. The lentivirus expresses the firefly luciferase gene under the control of a basal promoter and tandem repeats of the LXR transcriptional response element. The resulting cell line is referred to as THP1/LXR-Luc cells. For the assay, THP1/LXR-Luc cells were seeded onto 96-well plates at 40,000 cells/well in media containing RPMI supplemented with 10% FBS and penicillin/streptomycin and were then differentiated with 200 nM Phorbol Myristate Acetate (PMA) for 3 days. The media was subsequently removed and replaced with 80 μL of fresh media without PMA. Three-fold serial dilutions of free payloads were prepared in 100% DMSO, transferred to fresh growth media, and 20 μL were added to the cells at a final constant DMSO concentration of 0.2% and free payloads at final concentrations ranging from 100 nM to 0.015 nM. The last well in the plate served as blank control containing only the media and 0.2% DMSO (untreated well) and was plotted as a continuation of the 3-fold serial dilution. Forty-eight hours later, luciferase activity was determined after the addition of One-Glo™ reagent (Promega, Cat #E6130) to each well. Relative light units (RLUs) were measured on an Envision luminometer (PerkinElmer) and EC50 values were determined using a four-parameter logistic equation over a 10-point dose response curve (GraphPad Prism). The signal to noise (S/N) was determined by taking the ratio of the highest RLU on the dose response curve to the RLU in the untreated wells.

[3] = test system: THP-1; test: Activation of cholesterol efflux (BODIPY-cholesterol) in differentiated THP1 macrophages; assay type: cell-based, human
Experimental: The ability of anti-MSR1-LXR agonist ADCs to activate cholesterol efflux in a human macrophage cell line (THP-1; ATTC Catalog #TIB-202) were assessed using a fluorescent cholesterol analog. […] Cells were differentiated into macrophages by treatment with 100 nM Phorbol-12 myristate 13-acetate (Sigma, Catalog #P8139), which was added to the media (described above), for 96 hours. […] Percentage of BODIPY-cholesterol efflux was calculated using the following formula: [fluorescence in acceptor media/(fluorescence in acceptor media+fluorescence in cell lysate)]×100.

[4] = Stability of isolated compound in buffer; assay type: physicochemical; settings: HCl salt; even under basic buffer (pH>7)
Experimental: To a solution compound 141 (0.30 g, 0.33 mmol) in acetonitrile (5 mL) was added a solution of HCl in dioxane (4 N, 3 mL). The reaction mixture was stirred at room temperature for 3 hours until Boc was totally removed according to LCMS. The volatiles were removed, and the residue was purified by reversed phase flash chromatography (0-100% acetonitrile in water) to give compound 142 as HCl salt (0.19 g, 73% yield), as a white solid, which was not stable, even under basic buffer (pH>7). ESI m/z: 717.2 (M+H)^+.

[5] = test system: T1, LXR; test: THP1/LXR-Luc reporter assay, anti-MSR1 LXR agonist ADCs (Example 17); assay type: cell-based, human; settings: differentiated THP-1/LXR-Luc cells, Table 6
[6] = Homo sapiens, THP-1, after 24 hours, read-out: cholesterol efflux EC50
[7] = Homo sapiens, differentiated THP-1 macrophages, 24-hour treatment, Table 8, read-out: Cholesterol Efflux activation EC50

Molecule	EC50 [2]	S/N [2]	other results
CC(C)[C@H](NC(=O)[C@@H](CCCCNC(=O)COC1CCCCCc2c1nnn2CC1OC2OC3C(CO)OC(OC4C(CO)OC(OC5C(CO)OC(OC6C(CO)OC(OC7C(CO)OC(OC1C(O)C2O)C(O)C7O)C(O)C6O)C(O)C5O)C(O)C4O)C(O)C3O)NC(=O)CCOCCOCCOCCOCCNC(=O)CCC(=O)N1Cc2ccccc2C#Cc2ccccc21)C(=O)N[C@@H](CCCNC(N)=O)C(=O)Nc1ccc2c(c1)[C@@]1(C)CCC[C@](C)(C(=O)NC(=O)[C@@]3(C)CCC[C@]4(C)c5cc(N)ccc5CC[C@@H]34)[C@@H]1CC2 (stereo partly drawn) [LP2]			solubility [1]: < 100 µg/mL
C[C@]1(C(=O)NC(=O)[C@@]2(C)CCC[C@]3(C)c4cc(O)ccc4CC[C@@H]23)CCC[C@]2(C)c3cc(N)ccc3CC[C@@H]12 [P1, (1S,4aS,10aR)-N-[(1S,4aS,10aR)-6-Amino-1,4a-dimethyl-1,2,3,4,4a,9,10,10a-octahydrophenanthrene-1-carbonyl]-6-hydroxy-1,4a-dimethyl-1,2,3,4,4a,9,10,10a-octahydrophenanthrene-1-carboxamide]	0.191 nM	11.9	EC50 [3, 6]: 0.02 nM; EC50 [3, 7]: 0.02 nM
C[C@]1(C(=O)NC(=O)[C@@]2(C)CCC[C@]3(C)c4cc(N)ccc4CC[C@@H]23)CCC[C@]2(C)c3cc(N)ccc3CC[C@@H]12 [P2, (1S,4aS,10aR)-6-Amino-N-((1S,4aS,10aR)-6-amino-1,4a-dimethyl-1,2,3,4,4a,9,10,10a-octahydrophenanthrene-1-carbonyl)-1,4a-dimethyl-1,2,3,4,4a,9,10,10a-octahydrophenanthrene-1-carboxamide]	0.45 nM	13.1	EC50 [3, 6]: 0.014 nM; EC50 [3, 7]: 0.014 nM
C[C@H](N)C(=O)Nc1ccc2c(c1)[C@@]1(C)CCC[C@](C)(C(=O)NC(=O)[C@@]3(C)CCC[C@]4(C)c5cc(N)ccc5CC[C@@H]34)[C@@H]1CC2 [P13, (1S,4aS,10aR)-N-[(1S,4aS,10aR)-6-amino-1,4a-dimethyl-1,2,3,4,4a,9,10,10a-octahydrophenanthrene-1-carbonyl]-6-[(2S)-2-aminopropanamido]-1,4a-dimethyl-1,2,3,4,4a,9,10,10a-octahydrophenanthrene-1-carboxamide]	0.0788 nM	11.9	
C[C@]1(C(=O)NC(=O)[C@@]2(C)CCC[C@]3(C)c4cc(NC(=O)CO)ccc4CC[C@@H]23)CCC[C@]2(C)c3cc(N)ccc3CC[C@@H]12 [P14, (1S,4aS,10aR)-N-[(1S,4aS,10aR)-6-(2-hydroxyacetamido)-1,4a-dimethyl-1,2,3,4,4a,9,10,10a-octahydrophenanthrene-1-carbonyl]-6-amino-1,4a-dimethyl-1,2,3,4,4a,9,10,10a-octahydrophenanthrene-1-carboxamide]	0.152 nM	10.8	
CC(C)(C)OC(=O)Nc1ccc2c(c1)[C@@]1(C)CCC[C@](C)(C(=O)NC(=O)[C@@]3(C)CCC[C@]4(C)c5cc(O)ccc5CC[C@@H]34)[C@@H]1CC2 [P15, tert-Butyl N-[(4bS,8S,8aR)-8-({[(1S,4aS,10aR)-6-hydroxy-1,4a-dimethyl-1,2,3,4,4a,9,10,10a-octahydrophenanthren-1-yl]formamido}carbonyl)-4b,8-dimethyl-4b,5,6,7,8,8a,9,10-octahydrophenanthren-3-yl]carbamate]	72.9 nM	8.8	
C[C@H](NC(=O)[C@@H](N)CCC(=O)O)C(=O)Nc1ccc2c(c1)[C@@]1(C)CCC[C@](C)(C(=O)NC(=O)[C@@]3(C)CCC[C@]4(C)c5cc(O)ccc5CC[C@@H]34)[C@@H]1CC2 [P16, (4S)-4-Amino-4-{[(1S)-1-{[(4bS,8S,8aR)-8-({[(1S,4aS,10aR)-6-hydroxy-1,4a-dimethyl-1,2,3,4,4a,9,10,10a-octahydrophenanthren-1-yl]formamido}carbonyl)-4b,8-dimethyl-4b,5,6,7,8,8a,9,10-octahydrophenanthren-3-yl]carbamoyl}ethyl]carbamoyl}butanoic acid]	0.508 nM	11.5	
C[C@]1(C(=O)NC(=O)[C@@]2(C)CCC[C@]3(C)c4cc(NC(=O)CO)ccc4CC[C@@H]23)CCC[C@]2(C)c3cc(O)ccc3CC[C@@H]12 [P17, (1S,4aS,10aR)-N-[(1S,4aS,10aR)-6-(2-hydroxyacetamido)-1,4a-dimethyl-1,2,3,4,4a,9,10,10a-octahydrophenanthrene-1-carbonyl]-6-hydroxy-1,4a-dimethyl-1,2,3,4,4a,9,10,10a-octahydrophenanthrene-1-carboxamide]	1.03 nM	12.5	
C[C@]1(C(=O)NC(=O)[C@@]2(C)CCC[C@]3(C)c4cc(NC(=O)COCNC(=O)CN)ccc4CC[C@@H]23)CCC[C@]2(C)c3cc(O)ccc3CC[C@@H]12 [P18, (1S,4aS,10aR)-N-[(1S,4aS,10aR)-6-{2-[(2-aminoacetamido)methoxy]acetamido}-1,4a-dimethyl-1,2,3,4,4a,9,10,10a-octahydrophenanthrene-1-carbonyl]-6-hydroxy-1,4a-dimethyl-1,2,3,4,4a,9,10,10a-octahydrophenanthrene-1-carboxamide]	2.78 nM	11.5	
C[C@]1(C(=O)NC(=O)[C@@]2(C)CCC[C@]3(C)c4cc(N)c(O)cc4CC[C@@H]23)CCC[C@]2(C)c3cc(O)ccc3CC[C@@H]12 [P19, (1S,4aS,10aR)-N-[(1S,4aS,10aR)-6-amino-7-hydroxy-1,4a-dimethyl-1,2,3,4,4a,9,10,10a-octahydrophenanthrene-1-carbonyl]-6-hydroxy-1,4a-dimethyl-1,2,3,4,4a,9,10,10a-octahydrophenanthrene-1-carboxamide]	0.564 nM	11.4	
CNCCN(CCOCCO)C(=O)Oc1ccc2c(c1)[C@@]1(C)CCC[C@](C)(C(=O)NC(=O)[C@@]3(C)CCC[C@]4(C)c5cc(N)ccc5CC[C@@H]34)[C@@H]1CC2.Cl.Cl [compound 142, (4bS,8S,8aR)-8-((1S,4aS,10aR)-6-Amino-1,4a-dimethyl-1,2,3,4,4a,9,10,10a-octahydrophenanthrene-1-carbonylcarbamoyl)-4b,8-dimethyl-4b,5,6,7,8,8a,9,10-octahydrophenanthren-3-yl 2-(2-hydroxyethoxy)ethyl(2-(methylamino)ethyl)carbamate]			stability [4]: not stable
B1			EC50 [5]: 0.738 nM; S/N [5]: 11.8; EC50 ([3]; after 24 hours, read-out: cholesterol efflux EC50): 0.098 nM
